The subject of this assay is c-Myc. The assay can be described thus: c-Myc immunofluorescence assay. It counts as cell-based, human. As to conditions: A549 cells, 24 hours, anti-c-Myc immunofluorescence. In a few lines: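 A549 NSCLC cells grown 48 h, then treated 24 h with increasing compound concentrations; fixed in 4% paraformaldehyde, stained with anti-c-Myc antibody plus fluorescent secondary and DAPI. Per-cell c-Myc fluorescence quantified by high-content imaging at 20×; dose-response fitted by logistic regression to give EC50.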

Take `COc1ccc(-c2n[nH]c(N3CCC(C(=O)NCC4CCN(Cc5ccc(C)cc5)C4)CC3)n2)cc1` (stereo not shown) [Compound 169, 1-(3-(4-methoxyphenyl)-1H-1,2,4-triazol-5-yl)-N-((1-(4-methylbenzyl)pyrrolidin-3-yl)methyl)piperidine-4-carboxamide]: the “Myc Efficacy (−LogEC50)” value was “+ (+ >3 and <5)”.
Next, `COc1ccc(-c2noc(N3CCC(C(=O)NCC4(O)CCCCC4)CC3)n2)cc1` [Compound 270, N-((1-hydroxycyclohexyl)methyl)-1-(3-(4-methoxyphenyl)-1,2,4-oxadiazol-5-yl)piperidine-4-carboxamide]: “+ (+ >3 and <5)”; `COc1ccc(-c2noc(N3CCC(C(=O)NCC4CCN(CC(F)(F)F)C4)CC3)n2)cc1` (stereo not shown) [Compound 343, 1-(3-(4-methoxyphenyl)-1,2,4-oxadiazol-5-yl)-N-((1-(2,2,2-trifluoroethyl)pyrrolidin-3-yl)methyl)piperidine-4-carboxamide]: “+ (+ >3 and <5)”.
Consider `COc1ccc(-c2noc(N3CCC(C(=O)NCC4CCN(CC5CCCO5)C4)CC3)n2)cc1` (stereo not shown) [Compound 405, 1-(3-(4-methoxyphenyl)-1,2,4-oxadiazol-5-yl)-N-((1-((tetrahydrofuran-2-yl)methyl)pyrrolidin-3-yl)methyl)piperidine-4-carboxamide], for which the “Myc Efficacy (−LogEC50)” value was “+ (+ >3 and <5)”.
With `COc1ccc(-c2noc(N3CCC(C(=O)NCCCN4CCN(C(=O)c5ccccc5)CC4)CC3)n2)cc1` [Compound 228, N-(3-(4-benzoylpiperazin-1-yl)propyl)-1-(3-(4-methoxyphenyl)-1,2,4-oxadiazol-5-yl)piperidine-4-carboxamide] the entry was “+ (+ >3 and <5)”; with `COc1ccc(-c2noc(N3CCC(C(=O)NCc4ccccc4N4CCCC4)CC3)n2)cc1` [Compound 257, 1-(3-(4-methoxyphenyl)-1,2,4-oxadiazol-5-yl)-N-(2-(pyrrolidin-1-yl)benzyl)piperidine-4-carboxamide], “+ (+ >3 and <5)”; with `COc1ccc(-c2noc(N3CCC(C(=O)NC(C)C(C)(C)O)CC3)n2)cc1` (stereo not shown) [Compound 297, N-(3-hydroxy-3-methylbutan-2-yl)-1-(3-(4-methoxyphenyl)-1,2,4-oxadiazol-5-yl)piperidine-4-carboxamide], “+ (+ >3 and <5)”.
Next, `COc1ccc(-c2noc(N3CCC(C(=O)NC(CO)CC(F)(F)F)CC3)n2)cc1` (stereo not shown) [Compound 299, 1-(3-(4-methoxyphenyl)-1,2,4-oxadiazol-5-yl)-N-(4,4,4-trifluoro-1-hydroxybutan-2-yl)piperidine-4-carboxamide]: “+ (+ >3 and <5)”; `Cc1ccc(CN2CCC(CNC(=O)C3CCN(c4nc(-c5cccc(Cl)c5)no4)CC3)C2)cc1` (stereo not shown) [Compound 155, 1-(3-(3-chlorophenyl)-1,2,4-oxadiazol-5-yl)-N-((1-(4-methylbenzyl)pyrrolidin-3-yl)methyl)piperidine-4-carboxamide]: “++ (++ ≥5 and <6)”; `COc1ccc(-c2noc(N3CCC(C(=O)NCCCN4CCC(Cc5ccccc5)CC4)CC3)n2)cc1` [Compound 152, N-(3-(4-benzylpiperidin-1-yl)propyl)-1-(3-(4-methoxyphenyl)-1,2,4-oxadiazol-5-yl)piperidine-4-carboxamide]: “+++ (+++ ≥6)”.
With `COc1ccc(-c2noc(N3CCC(C(=O)N[C@H]4C[C@@H](OC)C4)CC3)n2)cc1` [Compound 256, N-((1s,3s)-3-methoxycyclobutyl)-1-(3-(4-methoxyphenyl)-1,2,4-oxadiazol-5-yl)piperidine-4-carboxamide] the entry was “+ (+ >3 and <5)”; with `COc1ccc(-c2noc(N3CCC(C(=O)NCC4CCN(Cc5cscn5)C4)CC3)n2)cc1` (stereo not shown) [Compound 360, 1-(3-(4-methoxyphenyl)-1,2,4-oxadiazol-5-yl)-N-((1-(thiazol-4-ylmethyl)pyrrolidin-3-yl)methyl)piperidine-4-carboxamide], “+ (+ >3 and <5)”.
In the case of `C#CCCC1(CCOc2cc(-c3noc(N4CCC(C(=O)NCC5CCN(Cc6ccc(C)cc6)C5)CC4)n3)ccc2OC)N=N1` (stereo not shown) [Compound 344, 1-(3-(3-(2-(3-(but-3-yn-1-yl)-3H-diazirin-3-yl)ethoxy)-4-methoxyphenyl)-1,2,4-oxadiazol-5-yl)-N-((1-(4-methylbenzyl)pyrrolidin-3-yl)methyl)piperidine-4-carboxamide], the “Myc Efficacy (−LogEC50)” value was “++ (++ ≥5 and <6)”.
Next, `COc1ccc(-c2noc(N3CCC(C(=O)NCC4CCN(Cc5ccc(C)cc5)C4)CC3)n2)nc1` (stereo not shown) [Compound 185, 1-(3-(5-methoxypyridin-2-yl)-1,2,4-oxadiazol-5-yl)-N-((1-(4-methylbenzyl)pyrrolidin-3-yl)methyl)piperidine-4-carboxamide]: “++ (++ ≥5 and <6)”; `COc1ccc(-c2noc(N3CCC(C(=O)N4CCCC4)CC3)n2)cc1` [Compound 109, (1-(3-(4-methoxyphenyl)-1,2,4-oxadiazol-5-yl)piperidin-4-yl)(pyrrolidin-1-yl)methanone]: “+ (+ >3 and <5)”; `COc1ccc(-c2noc(N3CCN(C(=O)NCC4CCN(CC5CCCCC5)C4)CC3)n2)cc1` (stereo not shown) [Compound 421, N-((1-(cyclohexylmethyl)pyrrolidin-3-yl)methyl)-4-(3-(4-methoxyphenyl)-1,2,4-oxadiazol-5-yl)piperazine-1-carboxamide]: “+++ (+++ ≥6)”.
Next, `COc1ccc(-c2noc(N3CCC(C(=O)N4CCOCC4)CC3)n2)cc1` [Compound 139, (1-(3-(4-methoxyphenyl)-1,2,4-oxadiazol-5-yl)piperidin-4-yl)(morpholino)methanone]: “+ (+ >3 and <5)”.
With `COc1ccc(-c2noc(N3CCC(C(=O)Nc4ccccc4C)CC3)n2)cc1` [Compound 213, 1-(3-(4-methoxyphenyl)-1,2,4-oxadiazol-5-yl)-N-(o-tolyl)piperidine-4-carboxamide] the entry was “+ (+ >3 and <5)”; with `COc1ccc(-c2noc(N3CCC(C(=O)NCC4CCN(Cc5cccn5C)C4)CC3)n2)cc1` (stereo not shown) [Compound 363, 1-(3-(4-methoxyphenyl)-1,2,4-oxadiazol-5-yl)-N-((1-((1-methyl-1H-pyrrol-2-yl)methyl)pyrrolidin-3-yl)methyl)piperidine-4-carboxamide], “+ (+ >3 and <5)”.
For the molecule `COc1ccc(-c2noc(N3CCC(C(=O)NCC4CCN(Cc5ccncc5)C4)CC3)n2)cc1` (stereo not shown) [Compound 322, 1-(3-(4-methoxyphenyl)-1,2,4-oxadiazol-5-yl)-N-((1-(pyridin-4-ylmethyl)pyrrolidin-3-yl)methyl)piperidine-4-carboxamide], the “Myc Efficacy (−LogEC50)” value is “++ (++ ≥5 and <6)”.
Next, `COc1ccc(-c2noc(N3CCN(C(=O)N4CCC(OC)CC4)CC3)n2)cc1` [Compound 190, (4-(3-(4-methoxyphenyl)-1,2,4-oxadiazol-5-yl)piperazin-1-yl)(4-methoxypiperidin-1-yl)methanone]: “+ (+ >3 and <5)”; `COc1ccc(-c2noc(N3CCC(C(=O)NC[C@@H]4CCN(Cc5ccc(C)cc5)C4)CC3)n2)cc1` [Compound 107, (S)-1-(3-(4-methoxyphenyl)-1,2,4-oxadiazol-5-yl)-N-((1-(4-methylbenzyl)pyrrolidin-3-yl)methyl)piperidine-4-carboxamide]: “+ (+ >3 and <5)”.
